Results published in PubChem BioAssay AID256 (DTP/NCI, 2004).
Toxic doses and inconclusive results are not listed.

Test system: CD2F1 mice, L1210 leukemia ip, survival T/C
Test: NCI In Vivo Anticancer Drug Screen. Data for tumor model L1210 Leukemia (intraperitoneal) in CD2F1 (CDF1) mice
Conditions: higher = longer survival
In short: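 Each value reflects a quotient of treated over vehicle control outcomes in mice with a transplanted tumor.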

[1] = endpoint: mean survival time, dose: 12.5 mg/kg/injection, schedule: Q01DX009 (ip), vehicle: saline with Tween-80
[2] = endpoint: mean survival time, dose: 100.0 mg/kg/injection, schedule: Q04DX002 (ip), vehicle: saline with Tween-80
[3] = endpoint: mean survival time, dose: 200.0 mg/kg/injection, schedule: Q04DX002 (ip), vehicle: saline with Tween-80
[4] = endpoint: mean survival time, dose: 100.0 mg/kg/injection, schedule: Q04DX003 (ip), vehicle: saline with Tween-80
[5] = endpoint: mean survival time, dose: 200.0 mg/kg/injection, schedule: Q04DX003 (ip), vehicle: saline with Tween-80
[6] = endpoint: mean survival time, dose: 400.0 mg/kg/injection, schedule: Q04DX003 (ip), vehicle: saline with Tween-80
[7] = endpoint: mean survival time, dose: 100.0 mg/kg/injection, schedule: Q04DX003 (ip), vehicle: saline
[8] = endpoint: mean survival time, dose: 100.0 mg/kg/injection, schedule: Q01DX001 (ip), vehicle: saline
[9] = endpoint: mean survival time, dose: 200.0 mg/kg/injection, schedule: Q01DX001 (ip), vehicle: saline
[10] = endpoint: mean survival time, dose: 12.5 mg/kg/injection, schedule: Q04DX003 (ip), vehicle: Klucel (hydroxypropylcellulose) (HPC)
[11] = endpoint: mean survival time, dose: 100.0 mg/kg/injection, schedule: Q01DX009 (ip), vehicle: saline with Tween-80
[12] = endpoint: mean survival time, dose: 200.0 mg/kg/injection, schedule: Q01DX009 (ip), vehicle: saline with Tween-80
[13] = endpoint: mean survival time, dose: 100.0 mg/kg/injection, schedule: Q04DX003 (ip), vehicle: Klucel (hydroxypropylcellulose) (HPC)
[14] = endpoint: mean survival time, dose: 200.0 mg/kg/injection, schedule: Q04DX003 (ip), vehicle: Klucel (hydroxypropylcellulose) (HPC)
[15] = endpoint: mean survival time, dose: 400.0 mg/kg/injection, schedule: Q04DX003 (ip), vehicle: Klucel (hydroxypropylcellulose) (HPC)

NNc1c(F)c(F)c2c(F)c(F)c(F)c(F)c2c1F
T/C (endpoint: mean survival time, dose: 25.0 mg/kg/injection, schedule: Q01DX001 (ip), vehicle: saline with Tween-80): 97 % of control | T/C (endpoint: mean survival time, dose: 50.0 mg/kg/injection, schedule: Q01DX001 (ip), vehicle: saline with Tween-80): 96 % of control | T/C (endpoint: mean survival time, dose: 100.0 mg/kg/injection, schedule: Q01DX001 (ip), vehicle: saline with Tween-80): 88 % of control

c1cnc2c(c1)Nc1cc3ccccc3cc1N2
T/C (endpoint: mean survival time, dose: 100.0 mg/kg/injection, schedule: Q04DX002 (ip), vehicle: saline + alcohol): 100 % of control | T/C (endpoint: mean survival time, dose: 200.0 mg/kg/injection, schedule: Q04DX002 (ip), vehicle: saline + alcohol): 89 % of control | T/C (endpoint: mean survival time, dose: 400.0 mg/kg/injection, schedule: Q04DX002 (ip), vehicle: saline + alcohol): 89 % of control

COc1ccc(/C=N/NC(=O)CNC(=O)Nc2cccc(Cl)c2)cc1
T/C [1]: 91 % of control | T/C (endpoint: mean survival time, dose: 25.0 mg/kg/injection, schedule: Q01DX009 (ip), vehicle: saline with Tween-80): 91 % of control

COc1ccc(NC(=O)Nc2cccc(Cl)c2)c(OC)c1
T/C [2]: 88 % of control | T/C [3]: 98 % of control

CCOC(=O)C1=C(C)O/C(=C/c2cccc(Cl)c2)C1=O
T/C (endpoint: median survival time, dose: 50.0 mg/kg/injection, schedule: Q01DX009 (ip), vehicle: saline with Tween-80): 107 % of control | T/C (endpoint: median survival time, dose: 100.0 mg/kg/injection, schedule: Q01DX009 (ip), vehicle: saline with Tween-80): 110 % of control | T/C (endpoint: median survival time, dose: 200.0 mg/kg/injection, schedule: Q01DX009 (ip), vehicle: saline with Tween-80): 112 % of control

O=[N+]([O-])c1ccc2c(ccn2C2OCC(O)C(O)C2O)c1 (centres undefined)
T/C (endpoint: mean survival time, dose: 450.0 mg/kg/injection, schedule: Q01DX009 (ip), vehicle: saline with Tween-80): 101 % of control

CCCCc1ccc(N=Cc2ccc(C=Nc3ccc(CCCC)cc3)cc2)cc1
T/C [4]: 94 % of control | T/C [5]: 89 % of control | T/C [6]: 89 % of control

CCn1c(C)cc(=O)c2ccccc21
T/C [2]: 105 % of control | T/C [3]: 94 % of control

Cc1ccc(S(=O)(=O)/C=C(\I)c2ccc([N+](=O)[O-])cc2)cc1
T/C (endpoint: mean survival time, dose: 50.0 mg/kg/injection, schedule: Q04DX003 (ip), vehicle: saline): 96 % of control | T/C [7]: 87 % of control

CC1(C)OC1(C)C
T/C [7]: 97 % of control | T/C (endpoint: mean survival time, dose: 200.0 mg/kg/injection, schedule: Q04DX003 (ip), vehicle: saline): 104 % of control | T/C (endpoint: mean survival time, dose: 400.0 mg/kg/injection, schedule: Q04DX003 (ip), vehicle: saline): 97 % of control

CCCSc1ccccc1
T/C [8]: 100 % of control | T/C [9]: 102 % of control

O=C(OCC1CCN2CCCC12)c1ccccc1 (centres undefined)
T/C (endpoint: mean survival time, dose: 12.5 mg/kg/injection, schedule: Q01DX009 (ip), vehicle: saline): 88 % of control | T/C (endpoint: mean survival time, dose: 25.0 mg/kg/injection, schedule: Q01DX009 (ip), vehicle: saline): 91 % of control | T/C (endpoint: mean survival time, dose: 50.0 mg/kg/injection, schedule: Q01DX009 (ip), vehicle: saline): 91 % of control

c1ccc(C2=C(c3ccccc3)C(c3ccccc3)(c3ccccc3)c3ccccc32)cc1
T/C [4]: 101 % of control | T/C [5]: 98 % of control | T/C [6]: 98 % of control

C=CC(=O)O
T/C (endpoint: mean survival time, dose: 1.56 mg/kg/injection, schedule: Q04DX003 (ip), vehicle: saline with Tween-80): 107 % of control | T/C (endpoint: mean survival time, dose: 3.12 mg/kg/injection, schedule: Q04DX003 (ip), vehicle: saline with Tween-80): 109 % of control | T/C (endpoint: mean survival time, dose: 6.25 mg/kg/injection, schedule: Q01DX009 (ip), vehicle: saline with Tween-80): 97 % of control | T/C (endpoint: mean survival time, dose: 6.25 mg/kg/injection, schedule: Q04DX003 (ip), vehicle: Klucel (hydroxypropylcellulose) (HPC)): 90 % of control | T/C (endpoint: mean survival time, dose: 6.25 mg/kg/injection, schedule: Q04DX003 (ip), vehicle: saline with Tween-80): 101 % of control | T/C (endpoint: mean survival time, dose: 9.2 mg/kg/injection, schedule: Q01DX009 (ip), vehicle: acetone): 89 % of control | T/C [1]: 92 % of control | T/C [10]: 96 % of control | T/C (endpoint: mean survival time, dose: 12.5 mg/kg/injection, schedule: Q04DX003 (ip), vehicle: saline with Tween-80): 91 % of control | T/C (endpoint: mean survival time, dose: 25.0 mg/kg/injection, schedule: Q04DX003 (ip), vehicle: saline with Tween-80): 97 % of control

c1cc2nc(c1)CSCCCCCCSC2
T/C [11]: 91 % of control | T/C [12]: 90 % of control | T/C (endpoint: mean survival time, dose: 400.0 mg/kg/injection, schedule: Q01DX009 (ip), vehicle: saline with Tween-80): 91 % of control

CCCCCCCCCCCC(=O)[O][Sn]([CH2]CCC)([CH2]CCC)[O]C(=O)CCCCCCCCCCC
T/C (endpoint: mean survival time, dose: 3.0 mg/kg/injection, schedule: Q04DX003 (ip), vehicle: saline with Tween-80): 100 % of control | T/C (endpoint: mean survival time, dose: 6.0 mg/kg/injection, schedule: Q04DX003 (ip), vehicle: saline with Tween-80): 103 % of control | T/C (endpoint: mean survival time, dose: 12.0 mg/kg/injection, schedule: Q04DX003 (ip), vehicle: saline with Tween-80): 103 % of control

CC(C)(C)NCC(CN(CC(CNC(C)(C)C)C(=O)c1ccccc1)C(C)(C)C)C(=O)c1ccccc1 (centres undefined)
T/C [10]: 98 % of control | T/C (endpoint: mean survival time, dose: 25.0 mg/kg/injection, schedule: Q04DX003 (ip), vehicle: Klucel (hydroxypropylcellulose) (HPC)): 96 % of control | T/C (endpoint: mean survival time, dose: 50.0 mg/kg/injection, schedule: Q04DX003 (ip), vehicle: Klucel (hydroxypropylcellulose) (HPC)): 102 % of control

CC1CC2OC(=O)C(O)(CO)C2CC2(C)C(=O)C=CC12 (centres undefined)
T/C (endpoint: mean survival time, dose: 25.0 mg/kg/injection, schedule: Q04DX002 (ip), vehicle: saline): 102 % of control | T/C (endpoint: mean survival time, dose: 50.0 mg/kg/injection, schedule: Q04DX002 (ip), vehicle: saline): 107 % of control

CC(C)c1cc2ccccc2s1
T/C [8]: 96 % of control | T/C [9]: 102 % of control

CC(=O)N(C(C)=O)c1ccc2[nH]c3c(N(C(C)=O)C(C)=O)cccc3c2c1
T/C [13]: 97 % of control | T/C [14]: 96 % of control | T/C [15]: 97 % of control

CO[C@H]1/C=C/O[C@@]2(C)Oc3c(C)c(O)c4c(O)c(c(/C=N/N5C(C)CN(Cc6ccccc6)CC5C)c(O)c4c3C2=O)NC(=O)/C(C)=C\C=C\[C@H](C)[C@H](O)[C@@H](C)[C@@H](O)[C@@H](C)[C@H](OC(C)=O)[C@@H]1C (some centres undefined)
T/C (endpoint: mean survival time, dose: 50.0 mg/kg/injection, schedule: Q01DX009 (ip), vehicle: saline with Tween-80): 96 % of control | T/C [11]: 100 % of control | T/C [12]: 96 % of control | T/C [5]: 90 % of control

CCC(C(=O)O)c1ccccc1 (centres undefined)
T/C (endpoint: mean survival time, dose: 100.0 mg/kg/injection, schedule: Q04DX003 (ip), vehicle: saline sonified): 97 % of control | T/C (endpoint: mean survival time, dose: 200.0 mg/kg/injection, schedule: Q04DX003 (ip), vehicle: saline sonified): 101 % of control

C1CC2(CCC13CS3)CS2 (centres undefined)
T/C (endpoint: mean survival time, dose: 50.0 mg/kg/injection, schedule: Q04DX002 (ip), vehicle: saline with Tween-80): 98 % of control | T/C [2]: 98 % of control | T/C [3]: 95 % of control

O=C(N/N=C\c1c(Cl)cccc1Cl)c1ccccc1
T/C (endpoint: mean survival time, dose: 100.0 mg/kg/injection, schedule: Q01DX009 (ip), vehicle: Klucel (hydroxypropylcellulose) (HPC)): 94 % of control | T/C [13]: 100 % of control | T/C (endpoint: mean survival time, dose: 200.0 mg/kg/injection, schedule: Q01DX009 (ip), vehicle: Klucel (hydroxypropylcellulose) (HPC)): 96 % of control | T/C [14]: 100 % of control | T/C [15]: 96 % of control

OC(C=C(C(F)(F)F)C(F)(F)F)c1ccccc1Cl (centres undefined)
T/C (endpoint: mean survival time, dose: 50.0 mg/kg/injection, schedule: Q04DX003 (ip), vehicle: saline with Tween-80): 102 % of control | T/C [4]: 107 % of control | T/C [5]: 111 % of control

S=c1[nH]ncn1/N=C/c1ccccc1Cl
T/C [4]: 95 % of control | T/C [5]: 101 % of control | T/C [6]: 89 % of control

NC1CCCCC1N.NC1CCCCC1N.[Cl-].[Cu+] (centres undefined)
T/C (endpoint: mean survival time, dose: 1.56 mg/kg/injection, schedule: Q04DX002 (ip), vehicle: saline): 97 % of control | T/C (endpoint: mean survival time, dose: 3.13 mg/kg/injection, schedule: Q04DX002 (ip), vehicle: saline): 97 % of control | T/C (endpoint: mean survival time, dose: 6.25 mg/kg/injection, schedule: Q04DX002 (ip), vehicle: saline): 97 % of control

CC(=O)Nc1c([N+](=O)[O-])cc2c3c(cccc13)C=C2
T/C [4]: 95 % of control | T/C [5]: 92 % of control | T/C [6]: 104 % of control

CCCCCCCCCC/C=C/C1=C(N=[N+]=N)C(=O)c2ccccc2C1=O
T/C (endpoint: mean survival time, dose: 100.0 mg/kg/injection, schedule: Q01DX001 (ip), vehicle: other): 92 % of control | T/C (endpoint: mean survival time, dose: 200.0 mg/kg/injection, schedule: Q01DX001 (ip), vehicle: other): 92 % of control | T/C (endpoint: mean survival time, dose: 400.0 mg/kg/injection, schedule: Q01DX001 (ip), vehicle: other): 94 % of control

CC(C)=C(CO)CCC(C)C
T/C [4]: 100 % of control | T/C [5]: 103 % of control
